In the NIST ThermoML archive (doi:10.1021/je060330k):
± gives the expanded uncertainty stated by the source.

Details: Liquid, Closed cell (Static) method

Compound: FCC(F)(F)F [1,1,1,2-tetrafluoroethane]
- vapor or sublimation pressure (295.4 K): 612 ± 1.3 kPa
- vapor or sublimation pressure (300 K): 704.4 ± 1.5 kPa
- vapor or sublimation pressure (304 K): 788.5 ± 1.6 kPa
